Laboratory results: publication PMC11215077, “Antiviral activity of temporin-1CEb analogues against gingival infection with herpes simplex virus type 1” (Frontiers in Oral Health, 2024)
Square brackets hold non-standard residues; d marks the D form. Peptide text beside a SMILES is read from it. AEEA = NCCOCCOCC(=O)O

Tests used:
HSV-1 [1] = experiment: Virion integrity assay; type: cell-based, herpes simplex virus type 1; settings: virions pre-treated 1 h at RT with 15 μg/ml, then TIGKs infected; qPCR up to 48 h p.i.; compared to Triton X-100
Description: HSV-1 samples were incubated with DAL-PEG-LK6 and CPP1-PEG-LK6 (15 μg/ml) for 1 h at room temperature on a shaker. Additionally, Triton X-100 was used as a positive control. Next, the mixtures were diluted to decrease tested molecules concentrations (0.65 ng/ml) and were used to infect TIGKs monolayers. After 48 h of incubation, supernatants were collected, and the quantity of HSV-1 DNA copies was determined using qPCR.
Viral DNA was isolated from the conditioned media or the apical washes of inserts (OTG model) using Viral DNA/RNA Isolation Kit (A&A Biotechnology). The virus yield assessed by quantitative real-time PCR (qPCR). The reaction was carried out in a CFX96 Touch Real-Time PCR Detection System (Bio-Rad), in a 10 μl reaction mixture consisting of TaqMan^TM Fast Advanced Master Mix, TaqMan^TM Microbe Detection assay against HSV-1 (Vi04230116_s1) and 1 μl of viral DNA. The temperature profile was 10 s at 95°C, followed by 40 cycles of 3 s at 95°C and 20 s at 60°C. DNA quantification standards were prepared. In summary, a fragment of viral DNA was amplified using the primers listed above and cloned into the pTZ57R/T plasmid using the InsTAclone PCR cloning kit. […] The number of copies per mL was estimated after the concentration of linearized DNA was assessed spectrophotometrically.

[2] = Confocal colocalization of CFS-labelled conjugate with HS on TIGKs cells; type: cell-based; settings: CFS-labelled conjugate 15 μg/ml, 30 min at 4°C, average ± SEM
Description: To examine the colocalization of HS on the cell surface with tested peptide conjugate we treated TIGKs cells with CFS stained CPP1-PEG-LK6 (15 μg/ml) for 30 min at 4°C. Then cells were washed with cold PBS and fixed with 3.7% formaldehyde for 30 min. Afterwards, TIGKs cells were stained with primary antibodies (1:100; rat anti-HS, Abcam) for 2 h at room temperature. The cells were then incubated with secondary antibodies (1:1,000; goat anti-rat conjugated with Alexa Fluor 568, Cell Signaling) and with Alexa Fluor 633 Phalloidin. Next, the coverslips were placed on glass slide with ProLong Antifade Mounting Medium with DAPI and visualized using a confocal laser scanning microscope (LSM 880; Zeiss).

HSV-1 [3] = experiment: Antiviral activity in 3D organotypic model of human gingiva (OTG); type: cell-based, herpes simplex virus type 1
Description: Protocol was described previously ([34]). Briefly, to prepare 3D cultures, 150,000 gingival fibroblasts suspended in 10% FBS in DMEM were mixed with 2.4 ml of ice-cold Matrigel® (Corning) (final concentration 7 mg/ml) and placed in the middle of 12-well cell culture inserts (Greiner). Three days later, 1 × 10^6 TIGK cells suspended in EPM1 were added to the top of the insert. On the ninth day after the start of the procedure, the old culture medium was removed and EPM2 was added to the bottom of the insert. The epithelial layer on the top was exposed to the air, which promotes epithelial differentiation and then stratification. About 8–10 days after air-liquid interphase, 3D cultures of gingiva were used for further experiments.
The apical surface of OTG model was washed three times with PBS and then inoculated with 100 μl of viral stock (TCID50 400 /ml) in the presence of DAL-PEG-LK6 or CPP1-PEG-LK6 (15 μg/ml) for 2 h at 4°C. Following incubation, the unbound HSV-1 was removed by washing with PBS for 10 min at 37°C, and the OTG cultures were maintained at an air-liquid interface for the rest of the experiment. To determine viral yield, 120 μl of PBS was applied to the apical surface of the OTG, and harvested for DNA isolation after 10 min of incubation at 37°C.
Briefly, cell inserts were fixed in 10% formaldehyde at 4°C for 1 h. After embedding in paraffin, 3D cultures were cut into 5 μm sections and stained with H&E solution. For immunohistochemical analysis, slides were incubated for 1 h at room temperature in blocking buffer (5% normal goat serum, 0.1% saponin in PBS) and stained with primary antibodies anti-HSV-1 (1:100, 1% normal goat serum, 0.1% saponin in PBS; Abcam) and secondary antibodies: goat anti-rabbit conjugated with Alexa Fluor 488 (1:2000; Cell Signaling). Finally, cell nuclei were stained with ProLong Antifade Mounting Medium with DAPI. Slides were visualized with EVOS FL Cell Imaging System (Thermo Fisher Scientific).
Viral DNA was isolated from the conditioned media or the apical washes of inserts (OTG model) using Viral DNA/RNA Isolation Kit (A&A Biotechnology). The virus yield assessed by quantitative real-time PCR (qPCR). The reaction was carried out in a CFX96 Touch Real-Time PCR Detection System (Bio-Rad), in a 10 μl reaction mixture consisting of TaqMan^TM Fast Advanced Master Mix, TaqMan^TM Microbe Detection assay against HSV-1 (Vi04230116_s1) and 1 μl of viral DNA. The temperature profile was 10 s at 95°C, followed by 40 cycles of 3 s at 95°C and 20 s at 60°C. DNA quantification standards were prepared. In summary, a fragment of viral DNA was amplified using the primers listed above and cloned into the pTZ57R/T plasmid using the InsTAclone PCR cloning kit. The plasmid was propagated in E. coli, purified with the GeneJet Plasmid Miniprep Kit, and digested with the EcoR1 restriction enzyme. The number of copies per mL was estimated after the concentration of linearized DNA was assessed spectrophotometrically.

[4] = Analytical RP-HPLC retention time; settings: Phenomenex Jupiter 4 μ Proteo 90 Å, 250 × 4.60 mm, listed as basic physicochemical characteristic
Description: The synthesized compounds were then purified by reverse-phase high-performance liquid chromatography (RP-HPLC) on a Waters system (Phenomenex Jupiter 4 μ Proteo 90 Å column, 250 × 10 mm). A linear gradient from 10% to 80% of solvent B over 60 min (Solvent A: 0.1% TFA in water; Solvent B: 80% acetonitrile in Solvent A) was employed with a flow rate 5 ml/min. The homogeneity of the final peptide fractions was analyzed using a Shimadzu HPLC System (Shimadzu Europe GmbH, Duisburg, Germany) equipped with a Phenomenex Jupiter 4 μ Proteo 90 Å column, 250 × 4.60 mm. The mass spectra of the synthesized peptides were recorded using a Biflex III MALDI-TOF mass spectrometry (Bruker, Mannheim, Germany) with α-cyano-4-hydroxy-cinnamic acid (CCA) or 2,5-dihydroxybenzoic acid (DHB) used as the matrix.

With `CC[C@H](C)[C@H](NC(=O)COCCOCCNC(=O)[C@@H](NC(=O)[C@H](CC(C)C)NC(=O)[C@H](Cc1ccc(O)cc1)NC(=O)[C@@H](NC(=O)[C@H](Cc1ccccc1)NC(=O)[C@@H]1CCCN1)C(C)C)[C@@H](C)CC)C(=O)N[C@@H](CCCCN)C(=O)N[C@@H](CCCCN)C(=O)N[C@H](C(=O)N[C@@H](CC(C)C)C(=O)N[C@@H](CO)C(=O)N[C@@H](CCCCN)C(=O)N[C@H](C(=O)N[C@@H](CCCCN)C(=O)N[C@@H](CCCCN)C(=O)N[C@@H](CC(C)C)C(=O)N[C@@H](CC(C)C)C(=O)N[C@@H](CCCCN)C(N)=O)[C@@H](C)CC)[C@@H](C)CC` [CPP1-PEG-LK6] (H-PFVYLI[AEEA]IKKILSKIKKLLK-NH2) the “effect on HSV-1 virion integrity” value (HSV-1 [1]) was “no inhibitory effect”, the “colocalization with HS, Manders overlap coefficient” value [2] was 0.93 ± 0.01 and the “colocalization with HS, Pearson's correlation” value [2] was 0.82 ± 0.02. For the same molecule, the “reduction of viral yield in OTG at 48 h” value (HSV-1 [3]; 15 μg/ml during inoculation 2 h at 4°C, apical washes, qPCR, 48 h post-viral inoculation) was 3 logs, the “reduction of viral yield in OTG at 72 h” value (HSV-1 [3]; 15 μg/ml during inoculation 2 h at 4°C, apical washes, qPCR, 72 h post-viral inoculation) was 2 logs and the “morphology of epithelial cells in OTG (H&E)” value (HSV-1 [3]; 15 μg/ml, H&E stained sections, Figure 5A) was “no changes in the morphology of epithelial cells”. For the same molecule, the “HSV-1-positive cells in OTG sections (immunohistology)” value (HSV-1 [3]; 15 μg/ml, anti-HSV-1 immunofluorescence, Figure 5B) was “absent” and the Rt [4] was 25.247.
